Experimental data taken from patent publication US12503455B2, “Nucleic acid-binding photoprobes and uses thereof” (Arrakis Therapeutics, Inc., priority 2017, dated 2025).

Assays:
[1] = cited from earlier work
Aptamer 21-E [2] = experiment: SHAPE-MaP on Aptamer 21-E with and without ligand; details: suggesting weak binding
Procedure: The SHAPE-MaP approach exploits conditions that cause reverse transcriptase to misread SHAPE-modified nucleotides and incorporate a nucleotide non-complementary to the original sequence into the newly synthesized cDNA. The positions and relative frequencies of SHAPE adducts are recorded as mutations in the cDNA primary sequence. In a SHAPE-MaP experiment, the RNA is treated with a SHAPE reagent or treated with solvent only, and the RNA is […]. RNA from each experimental condition is reverse-transcribed, and the resulting cDNAs are then sequenced. […]
SHAPE-MaP can be performed and analyzed according to detailed published methods (Martin et al., RNA 2012; 18:77-87; McGuinness et al., J. Am. Chem. Soc. 2012; 134:6617-6624; Siegfried et al., Nature Methods 2014; 11:959-965; Lavender et al., PLoS Comput. Biol. 2015; 11(5)e1004230; McGuinness et al., Proc. Natl. Acad. Sci. USA 2015; 112:2425-2430). The SHAPE-MaP sequence data can be analyzed using ShapeFinder (Vasa et al., RNA 2008; 14:1979-1990) or ShapeMapper (Siegfried et al., Nature Methods 2014; 11:959-965) or other software. […]
For all SHAPEware analysis, reads were adapter-trimmed aligned as previously described (https://bitbucket.org/arrakistx/shapeware/src) using Trimmomatic (http://dx.doi.org/10.1093/bioinformatics/btu170) and bwa-mem (https://arxiv.org/abs/1303.3997), respectively. […]

Aptamer 21 RNA = experiment: Online SEC-LCMS binding to Aptamer 21 RNA; details: for % of binding: RNA 1 uM
Procedure: Online SEC-LCMS has been used to study the binding to Aptamer 21 RNA against I-1 (ARK-139).
(§1) The RNA concentration was 1 μM and the ligand concentration ranged from 0.1 to 10 μM in an appropriate buffer (TRIS-HCl 20 mM pH 8.0, MgCl2 3 mM, KCl 100 mM).
(§2) The RNA/ligand mixtures were incubated at room temperature for 20 minutes in a 96-well plate format, then this plate was loaded into an autosampler linked to the chromatography system fitted with a reusable SEC column for rapid separation of target/ligand complexes from unbound components. RNA/ligand complexes in SEC eluent were monitored by UV detection, and an automated valving system directed the RNA peak to a reverse phase chromatography column for dissociation, desalting, and elution of any ligands into an ESI-MS system for identification.
(§3) All liquid chromatographic components were HP1200 modules. The mass spectrometer was the Waters LCT premier instrument operated in positive electrospray (ES+) TOF-MS mode. The mass range acquired was 80-1000 m/z in 0.25 s. The SEC column was 50×4.6 mm polyhydroxyethyl column. The SEC mobile phase was 50 mM phosphate buffer with 200 mM NaCl, pH=7.0. The LC column was a 2.1×50 mm C18 Phenomenex column. The gradient LC mobile phase A was 0.1% formic acid in water and B was acetonitrile/water with 0.1% formic acid. The run time was 7.9 min.
Binding of I-1 to Aptamer 21 was measured. SEC/LCMS conditions for this experiment were: [I-1]=5 uM, [RNA]=1 uM, Buffer=Tris-HCl 20 mM, KCl 100 mM, 3 mM MgCl2.

Aptamer 21-E [3] = experiment: SEC/LCMS binding to Aptamer 21-E
Procedure: as §1, §2, §3
The start of saturation was between 1 and 3 μM.

Aptamer-21 = details: Lau et al., ACS Nano 2011; read-out: Kd of Aptamer-21 against compound 1b; cited from earlier work
Aptamer 21 = experiment: Competition between Aptamer 21 photoprobes and RNA-binding ligands (RT pausing)
Procedure: Aptamer 21 was either incubated with probe alone (ARK-581) or probe plus a 10-fold excess of RNA-binding ligand.
Both ARK-852 and ARK-139 inhibit the photocrosslinking of probes to Aptamer 21.
Folded RNA (1 μM) was incubated with the photoaffinity probe (10 μM) in total 25 μL of buffer (20 mM TrisHCl pH 8, 100 mM KCl, 3 mM MgCl2) with 2.5% DMSO for 30 min at 37° C. to allow binding to come to equilibrium. The sample was then irradiated with long wave UV light (˜365 nm) for 30 min in a UV crosslinker (Fisher Scientific).
A 3.75 μL aliquot of 10 μM reverse transcription primer was added to the cross-linked RNA sample, which was then incubated for 5 min at 65° C. and then cooled on ice. The sample was then diluted to a final volume of 60 μL and final buffer concentration of 1× Protoscript-II buffer (New England Biolabs), 0.5 mM dNTPs, 10 mM DTT, 0.4 U/μL RNase Inhibitor (New England Biolabs), and 10 U/μL Protoscript-II (New England Biolabs). The reaction was incubated at 45° C. for 2 h, 65° C. for 20 min, and then 4° C.
The RNA was hydrolyzed by the addition of 4.8 μL of 2.5 M NaOH and heating at 95° C. for 5 min. The reaction was quenched by the addition of 0.9 μL of acetic acid. The cDNA was precipitated by the addition of 6.6 μL of 3 M sodium acetate pH 5 and 181 μL ethanol, cooling to −80° C. for 1 h, and then centrifuging at 20,500×g at 4° C. for 30 min. The cDNA pellet was washed twice with 500 μL of 70% ethanol and then air dried for 5 min.
The cDNA pellet was resuspended in 12 μL of 1×TBE-urea sample loading buffer (Bio-Rad) and heated to 95° C. for 5 min. The sample was then run on a pre-cast 8.6×6.7 cm TBE-urea 10% PAGE gel (Bio-Rad) at 120 V until the lower bromophenol blue dye reached the bottom of the gel. The gel was stained with 1×SYBR-gold (Invitrogen) in 1×TBE buffer at room temperature for 20 min covered from light. The gel fluorescence was imaged on an Azure c600 instrument.

% of binding (Aptamer 21 RNA; ARK-000139 conc 0.1 μM): 72.5%
% of binding (Aptamer 21 RNA; ARK-000139 conc 0.5 μM): 36.5%
% of binding (Aptamer 21 RNA; ARK-000139 conc 1 μM): 33.6%
% of binding (Aptamer 21 RNA; ARK-000139 conc 3 μM): 22.4%
% of binding (Aptamer 21 RNA; ARK-000139 conc 10 μM): 8.9%
binding to Aptamer 21 by SEC-MS (Aptamer 21 RNA; data not shown): confirmed
binding to Aptamer 21-E by SEC/LCMS (Aptamer 21-E [3]): does not bind
inhibition of photocrosslinking of ARK-581 to Aptamer 21 (Aptamer 21; 10-fold excess of RNA-binding ligand over probe): efficiently inhibited
inhibition of photocrosslinking of probes to Aptamer 21 (RT pausing competition assay) (Aptamer 21; FIG. 65): inhibit
SMILES: COC(=O)C1=C(COCc2cn(CCOCCOCCO)nn2)NC(c2ccncc2)=NC1c1ccc(F)cc1Cl (racemic) [I-1]
water solubility [1]: water-soluble
alteration in SHAPE reactivity of Aptamer 21-E in presence of ligand (Aptamer 21-E [2]): almost no alteration
Kd (Aptamer-21): 50 nM
